Results reported in PubChem BioAssay AID248 (DTP/NCI, 2004).
Several values for one entry are separate records, joined by “and”; a condition that tells them apart may be missing. Identical values can stand only once. Toxic doses and inconclusive results are not listed.

Test system: L1210 leukemia ip in BDF1 mice, survival T/C
Assay: NCI In Vivo Anticancer Drug Screen. Data for tumor model L1210 Leukemia (intraperitoneal) in B6D2F1 (BDF1) mice
Conditions: endpoint: mean survival time, higher = longer survival
Outline: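 Tumor cells were implanted, animals were treated, and survival was followed. The result divides the treated measurement by the vehicle-control measurement.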

[1] = dose: 100.0 mg/kg/injection, schedule: Q01DX001 (ip), vehicle: gum acacia
[2] = dose: 100.0 mg/kg/injection, schedule: Q01DX009 (ip), vehicle: gum acacia
[3] = dose: 100.0 mg/kg/injection, schedule: Q04DX003 (ip), vehicle: gum acacia
[4] = dose: 200.0 mg/kg/injection, schedule: Q01DX001 (ip), vehicle: gum acacia
[5] = dose: 200.0 mg/kg/injection, schedule: Q01DX009 (ip), vehicle: gum acacia
[6] = dose: 200.0 mg/kg/injection, schedule: Q04DX003 (ip), vehicle: gum acacia
[7] = dose: 400.0 mg/kg/injection, schedule: Q01DX001 (ip), vehicle: gum acacia
[8] = dose: 400.0 mg/kg/injection, schedule: Q04DX003 (ip), vehicle: gum acacia
[9] = dose: 100.0 mg/kg/injection, schedule: Q01DX009 (ip), vehicle: saline
[10] = dose: 200.0 mg/kg/injection, schedule: Q01DX009 (ip), vehicle: saline
[11] = dose: 400.0 mg/kg/injection, schedule: Q01DX009 (ip), vehicle: saline
[12] = dose: 100.0 mg/kg/injection, schedule: Q01DX001 (ip), vehicle: saline
[13] = dose: 100.0 mg/kg/injection, schedule: Q01DX009 (ip), vehicle: saline with Tween-80
[14] = dose: 200.0 mg/kg/injection, schedule: Q01DX001 (ip), vehicle: saline
[15] = dose: 200.0 mg/kg/injection, schedule: Q01DX009 (ip), vehicle: saline with Tween-80
[16] = dose: 400.0 mg/kg/injection, schedule: Q01DX001 (ip), vehicle: saline
[17] = dose: 400.0 mg/kg/injection, schedule: Q01DX009 (ip), vehicle: saline with Tween-80
[18] = dose: 100.0 mg/kg/injection, schedule: Q04DX003 (ip), vehicle: Klucel (hydroxypropylcellulose) (HPC)
[19] = dose: 100.0 mg/kg/injection, schedule: Q01DX001 (ip), vehicle: saline with Tween-80
[20] = dose: 100.0 mg/kg/injection, schedule: Q04DX002 (ip), vehicle: saline with Tween-80
[21] = dose: 200.0 mg/kg/injection, schedule: Q01DX001 (ip), vehicle: saline with Tween-80
[22] = dose: 200.0 mg/kg/injection, schedule: Q04DX002 (ip), vehicle: saline with Tween-80
[23] = dose: 200.0 mg/kg/injection, schedule: Q04DX003 (ip), vehicle: saline with Tween-80
[24] = dose: 400.0 mg/kg/injection, schedule: Q01DX001 (ip), vehicle: saline with Tween-80
[25] = dose: 400.0 mg/kg/injection, schedule: Q04DX003 (ip), vehicle: saline with Tween-80
[26] = dose: 200.0 mg/kg/injection, schedule: Q04DX003 (ip), vehicle: Klucel (hydroxypropylcellulose) (HPC)
[27] = dose: 400.0 mg/kg/injection, schedule: Q04DX003 (ip), vehicle: Klucel (hydroxypropylcellulose) (HPC)
[28] = dose: 100.0 mg/kg/injection, schedule: Q04DX003 (ip), vehicle: saline
[29] = dose: 200.0 mg/kg/injection, schedule: Q04DX003 (ip), vehicle: saline
[30] = dose: 400.0 mg/kg/injection, schedule: Q04DX003 (ip), vehicle: saline

Cc1cc(Cl)ccc1NC(=O)OCCSc1ccc(Cl)cc1
T/C [1]: 94 % of control
T/C [2]: 94 % of control and 95 % of control
T/C [3]: 93 % of control and 94 % of control
T/C [4]: 101 % of control
T/C [5]: 97 % of control and 91 % of control
T/C [6]: 97 % of control
T/C [7]: 101 % of control
T/C (dose: 400.0 mg/kg/injection, schedule: Q01DX009 (ip), vehicle: gum acacia): 93 % of control and 98 % of control
T/C [8]: 95 % of control and 90 % of control

CC(=O)NCC(C)C
T/C [9]: 101 % of control
T/C [10]: 108 % of control
T/C [11]: 105 % of control

CN(C)C=Nc1ccc([N+](=O)[O-])cc1
T/C (dose: 50.0 mg/kg/injection, schedule: Q01DX001 (ip), vehicle: saline): 89 % of control
T/C [12]: 89 % of control
T/C [13]: 96 % of control
T/C [14]: 96 % of control
T/C [15]: 89 % of control
T/C [16]: 91 % of control
T/C [17]: 90 % of control

C=CCc1cc(CNC(C)C)c(O)c(OC)c1
T/C (dose: 25.0 mg/kg/injection, schedule: Q04DX003 (ip), vehicle: Klucel (hydroxypropylcellulose) (HPC)): 96 % of control
T/C (dose: 50.0 mg/kg/injection, schedule: Q04DX003 (ip), vehicle: Klucel (hydroxypropylcellulose) (HPC)): 88 % of control
T/C [18]: 101 % of control and 92 % of control

CN(Cc1cnc2nc(N)nc(N)c2n1)c1ccc(C(=O)NC(CCC(=O)O)C(=O)O)cc1Cl (stereo not given)
T/C (dose: 1.25 mg/kg/injection, schedule: Q01DX001 (ip), vehicle: saline): 114 % of control
T/C (dose: 2.0 mg/kg/injection, schedule: Q01DX015 (ip), vehicle: saline): 291 % of control
T/C (dose: 2.5 mg/kg/injection, schedule: Q01DX001 (ip), vehicle: saline): 114 % of control
T/C (dose: 5.0 mg/kg/injection, schedule: Q01DX001 (ip), vehicle: saline): 118 % of control
T/C (dose: 7.5 mg/kg/injection, schedule: Q01DX015 (ip), vehicle: saline): 166 % of control

CCOC(=O)c1ccc(NC(=O)N(C2CCCCC2)C2CCCCC2)cc1
T/C [19]: 86 % of control
T/C [13]: 101 % of control
T/C [20]: 103 % of control and 90 % of control
T/C [21]: 86 % of control
T/C [15]: 92 % of control
T/C [22]: 94 % of control
T/C [23]: 94 % of control
T/C [24]: 93 % of control
T/C [17]: 101 % of control
T/C (dose: 400.0 mg/kg/injection, schedule: Q04DX002 (ip), vehicle: saline with Tween-80): 94 % of control and 90 % of control
T/C [25]: 91 % of control

CCCCCCCCCCNC(C)=O
T/C (dose: 100.0 mg/kg/injection, schedule: Q01DX009 (ip), vehicle: Klucel (hydroxypropylcellulose) (HPC)): 104 % of control
T/C [18]: 109 % of control
T/C (dose: 200.0 mg/kg/injection, schedule: Q01DX009 (ip), vehicle: Klucel (hydroxypropylcellulose) (HPC)): 106 % of control
T/C [26]: 96 % of control
T/C (dose: 400.0 mg/kg/injection, schedule: Q01DX009 (ip), vehicle: Klucel (hydroxypropylcellulose) (HPC)): 89 % of control
T/C [27]: 102 % of control

c1csc([Si](c2cccs2)(c2cccs2)c2cccs2)c1
T/C [20]: 103 % of control
T/C [22]: 89 % of control

COc1cc(C=Nc2cc(Cl)c(OC)c(Cl)c2)ccc1N(CCCl)CCCl
T/C (dose: 26.0 mg/kg/injection, schedule: Q01DX001 (ip), vehicle: carboxymethylcellulose (CMC)): 121 % of control
T/C (dose: 26.0 mg/kg/injection, schedule: Q01DX009 (ip), vehicle: carboxymethylcellulose (CMC)): 120 % of control
T/C (dose: 29.0 mg/kg/injection, schedule: Q01DX001 (ip), vehicle: carboxymethylcellulose (CMC)): 118 % of control
T/C (dose: 40.0 mg/kg/injection, schedule: Q01DX009 (ip), vehicle: carboxymethylcellulose (CMC)): 94 % of control
T/C (dose: 44.0 mg/kg/injection, schedule: Q01DX001 (ip), vehicle: carboxymethylcellulose (CMC)): 114 % of control
T/C (dose: 150.0 mg/kg/injection, schedule: Q01DX001 (ip), vehicle: carboxymethylcellulose (CMC)): 121 % of control
T/C (dose: 225.0 mg/kg/injection, schedule: Q01DX001 (ip), vehicle: carboxymethylcellulose (CMC)): 122 % of control
T/C (dose: 300.0 mg/kg/injection, schedule: Q01DX001 (ip), vehicle: carboxymethylcellulose (CMC)): 122 % of control

O=C1N(c2ccccc2)C(c2ccccc2)C1(c1ccccc1)c1ccccc1 (stereo not given)
T/C [1]: 92 % of control
T/C [4]: 86 % of control
T/C [7]: 94 % of control

CCOC(=O)CCSc1ccc(NC(C)=O)cc1
T/C [19]: 103 % of control
T/C [21]: 111 % of control
T/C [24]: 97 % of control

CCOP(=O)(OCC)OCc1ccc(C)cc1
T/C (dose: 100.0 mg/kg/injection, schedule: Q04DX003 (ip), vehicle: saline with Tween-80): 94 % of control
T/C [23]: 102 % of control
T/C [25]: 97 % of control

COC(CN)C(Cl)(Cl)Cl (stereo not given)
T/C [12]: 98 % of control
T/C (dose: 100.0 mg/kg/injection, schedule: Q04DX002 (ip), vehicle: saline): 96 % of control and 89 % of control
T/C [28]: 98 % of control
T/C [14]: 107 % of control
T/C (dose: 200.0 mg/kg/injection, schedule: Q04DX002 (ip), vehicle: saline): 94 % of control and 100 % of control
T/C [29]: 107 % of control
T/C [16]: 96 % of control
T/C (dose: 400.0 mg/kg/injection, schedule: Q04DX002 (ip), vehicle: saline): 96 % of control and 100 % of control
T/C [30]: 106 % of control

COc1cc(OC)c(Br)c(OC)c1
T/C (dose: 100.0 mg/kg/injection, schedule: Q01DX009 (ip), vehicle: other): 108 % of control
T/C [28]: 94 % of control
T/C (dose: 200.0 mg/kg/injection, schedule: Q01DX009 (ip), vehicle: other): 93 % of control
T/C [29]: 96 % of control
T/C (dose: 400.0 mg/kg/injection, schedule: Q01DX009 (ip), vehicle: other): 101 % of control
T/C [30]: 97 % of control

OC1CCC(O)C2CCC1S2 (stereo not given)
T/C (dose: 100.0 mg/kg/injection, schedule: Q01DX001 (ip), vehicle: steriod suspending solution): 87 % of control
T/C (dose: 200.0 mg/kg/injection, schedule: Q01DX001 (ip), vehicle: steriod suspending solution): 92 % of control
T/C (dose: 400.0 mg/kg/injection, schedule: Q01DX001 (ip), vehicle: steriod suspending solution): 103 % of control

O=S(=O)(N=C1C=CC(=NS(=O)(=O)c2ccccc2)C=C1)c1ccccc1
T/C [2]: 98 % of control
T/C [3]: 98 % of control
T/C [5]: 97 % of control
T/C [6]: 98 % of control
T/C [8]: 95 % of control

[O-][N+]1=CCCC1
T/C [9]: 89 % of control
T/C [28]: 104 % of control
T/C [10]: 91 % of control
T/C [29]: 107 % of control
T/C [11]: 92 % of control
T/C [30]: 105 % of control

NNc1nncc(=O)[nH]1
T/C [19]: 103 % of control
T/C [21]: 103 % of control

CN(C)c1ccc(-c2cc[n+](C)cc2)cc1
T/C (dose: 3.13 mg/kg/injection, schedule: Q04DX003 (ip), vehicle: saline): 101 % of control
T/C (dose: 6.25 mg/kg/injection, schedule: Q04DX003 (ip), vehicle: saline): 101 % of control
T/C (dose: 12.5 mg/kg/injection, schedule: Q04DX003 (ip), vehicle: saline): 104 % of control

COC(=O)N(CCCCN(N=O)C(=O)OC)N=O
T/C (dose: 100.0 mg/kg/injection, schedule: Q04DX002 (ip), vehicle: Klucel (hydroxypropylcellulose) (HPC)): 101 % of control
T/C (dose: 200.0 mg/kg/injection, schedule: Q04DX002 (ip), vehicle: Klucel (hydroxypropylcellulose) (HPC)): 108 % of control

O=CN/N=C/c1cc(Cl)cc(Cl)c1O
T/C [18]: 100 % of control
T/C [26]: 92 % of control
T/C [27]: 94 % of control

CCC(C(=O)O)=C1CCCCC1
T/C [12]: 95 % of control
T/C [14]: 95 % of control
T/C [16]: 103 % of control
